Assay results taken from paper PMC9072872, “Structure-based design of nucleoside-derived analogues as sulfotransferase inhibitors” (RSC Advances, 2019).

Target: PKA (Homo sapiens, UniProt P17612)
Assay: PKA kinase counter-screen
Type: biochemical
Details: compound 400 μM, PKA 1 nM, ATP 5 μM, 30 min, 20 °C
Source text: Fig. 5 Immunological evaluation of TPST1 inhibition towards substrate and a Ser/Thr protein kinase counter-screen. (A) Immunoblots evaluating TPST1 sulfotransferase activity in the presence of a panel of PAP- and PAPS-mimetic compounds. […] After termination of the reaction using SDS-PAGE sample buffer, tyrosine sulfation was visualised by immunoblotting using a monoclonal sulfotyrosine antibody (top panel), with equal GST-CC4-tide and TPST1 loading confirmed using an antibody to detect 6xHis tagged proteins (bottom panel). (B) Enzymatic inhibition of PKA catalytic activity by a panel of PAP- and PAPS-mimetic compounds. PKA kinase (1 nM) was incubated with ATP (5 μM) in the presence of the appropriate nucleoside analogue (400 μM) for 30 min at 20 °C. PKA activity was calculated in real-time using fluorescently-labelled substrate peptide (2 μM) and normalised to DMSO (4% v/v) or buffer control.[77] Data in B is mean and SD of 3 individual experiments. Staurosporine is included at 40 μM as a generic inhibitor of kinase activity.
Finally, a simple counter-screen was set up employing PKA. This was carried out in order to assess relative specificity for ST inhibition, and using the generic kinase inhibitor staurosporine A as a positive control and PAP and CoA as negative controls, neither of which bind nor inhibit PKA. Compounds were screened at 400 μM in the presence 1 nM PKA.

Nc1ncnc2c1ncn2[C@H]1C[C@H](OP(=O)(O)O)[C@@H](COP(=O)(O)O)O1 [2′-deoxy-PAP]
inhibitory activity towards PKA: no activity
